Data on 26 compounds can be found in patent publication US11203613B2, “Peptidomimetic proteasome inhibitors” (CORNELL UNIVERSITY, priority 2017, dated 2021).

The assay has as its target Human Constitutive (Hu C-20S) β5 Active Subunit (Homo sapiens, UniProt P28074). Description: IC50 determination, human constitutive 20S proteasome β5c (suc-LLVY-AMC hydrolysis). The class given is biochemical. The settings on record: Table 3; IC50 against human constitutive β5 active subunit; read-out: Hu-C20S β5.
For `C[C@H](NC(=O)[C@H](CC(=O)N1CCCC1)NC(=O)CCC(C)(C)C)c1ncc(-c2ccc(F)cc2F)[nH]1` [CEN-83, N—((S)-1-(((S)-1-(5-(2,4-Difluorophenyl)-1H-imidazol-2-yl)ethyl)amino)-1,4-dioxo-4-(pyrrolidin-1-yl)butan-2-yl)-4,4-dimethylpentanamide], the IC50 amounted to 10.3 µM.

Take `CC(C)CCC(=O)N[C@@H](CC(=O)N1CCCCC1)C(=O)N[C@@H](C)c1ncc(-c2ccc(F)cc2F)[nH]1` [CEN-84, N—((S)-1-(((S)-1-(5-(2,4-Difluorophenyl)-1H-imidazol-2-yl)ethyl)amino)-1,4-dioxo-4-(piperidin-1-yl)butan-2-yl)-4-methylpentanamide]: the IC50 turned out to be 7.3 µM.

Consider `CC(C)C(=O)CN[C@@H](CC(=O)N1CCCC[C@@H]1C)C(=O)N[C@@H](C)c1ncc(-c2ccc(F)cc2F)[nH]1` [CEN-85, (S)—N—((S)-1-(5-(2,4-Difluorophenyl)-1H-imidazol-2-yl)ethyl)-2-((3-methyl-2-oxobutyl)amino)-4-((S)-2-methylpiperidin-1-yl)-4-oxobutanamide], for which the IC50 amounted to 9.9 µM.

With `CCS(=O)(=O)N[C@@H](CC(=O)N1CCCC[C@@H]1C)C(=O)N[C@@H](C)c1ncc(-c2ccc(F)cc2F)[nH]1` [CEN-86, (S)—N—((S)-1-(5-(2,4-Difluorophenyl)-1H-imidazol-2-yl)ethyl)-2-(ethylsulfonamido)-4-((S)-2-methylpiperidin-1-yl)-4-oxobutanamide], the IC50 is 28.2 µM.

Regarding `C[C@H](NC(=O)[C@H](CC(=O)N1CCCC[C@@H]1C)NC(=O)CCC1CC1)c1ncc(-c2ccc(F)cc2F)[nH]1` [CEN-87, (S)-2-(3-Cyclopropylpropanamido)-N—((S)-1-(5-(2,4-difluorophenyl)-1H-imidazol-2-yl)ethyl)-4-((S)-2-methylpiperidin-1-yl)-4-oxobutanamide], the IC50 was 11.7 µM.

As to `CC(C)CCC(=O)N[C@@H](CC(=O)N1CCCC[C@@H]1C)C(=O)N[C@@H](C)c1ncc(-c2ccc(F)cc2F)[nH]1` [CEN-88, N—((S)-1-(((S)-1-(5-(2,4-Difluorophenyl)-1H-imidazol-2-yl)ethyl)amino)-4-((S)-2-methylpiperidin-1-yl)-1,4-dioxobutan-2-yl)-4-methylpentanamide], the IC50 is 15.1 µM.

For the compound `C[C@H](NC(=O)[C@H](CC(=O)N1CCC[C@@H]1C)NC(=O)CCC(C)(C)C)c1ncc(-c2ccc(F)cc2F)[nH]1` [CEN-89, N—((S)-1-(((S)-1-(5-(2,4-Difluorophenyl)-1H-imidazol-2-yl)ethyl)amino)-4-((S)-2-methylpyrrolidin-1-yl)-1,4-dioxobutan-2-yl)-4,4-dimethylpentanamide], the IC50 is 5.7 µM.

For the compound `CC(C)CCC(=O)N[C@@H](CC(=O)N1CCCCCC1)C(=O)N[C@@H](C)c1ncc(-c2ccc(F)cc2F)[nH]1` [CEN-90, N—((S)-4-(Azepan-1-yl)-1-(((S)-1-(5-(2,4-difluorophenyl)-1H-imidazol-2-yl)ethyl)amino)-1,4-dioxobutan-2-yl)-4-methylpentanamide], the IC50 stood at 10.2 µM.

In the case of `CC(C)CCC(=O)N[C@@H](CC(=O)N1CCCC[C@H]1C)C(=O)N[C@@H](C)c1ncc(-c2ccc(F)cc2F)[nH]1` [CEN-91, N—((S)-1-(((S)-1-(5-(2,4-Difluorophenyl)-1H-imidazol-2-yl)ethyl)amino)-4-((R)-2-methylpiperidin-1-yl)-1,4-dioxobutan-2-yl)-4-methylpentanamide], the IC50 is 10.5 µM.

Consider `CC(C)CCC(=O)N[C@@H](CC(=O)N1CCOC[C@@H]1C)C(=O)N[C@@H](C)c1ncc(-c2ccc(F)cc2F)[nH]1` [CEN-92, N—((S)-1-(((S)-1-(5-(2,4-Difluorophenyl)-1H-imidazol-2-yl)ethyl)amino)-4-((S)-3-methylmorpholino)-1,4-dioxobutan-2-yl)-4-methylpentanamide], for which the IC50 stood at 15.2 µM.

With `C[C@H](NC(=O)[C@H](CC(=O)N1CCCC[C@@H]1C)NC(=O)c1cn(C)cn1)c1ncc(-c2ccc(F)cc2F)[nH]1` [CEN-93, N—((S)-1-(((S)-1-(5-(2,4-Difluorophenyl)-1H-imidazol-2-yl)ethyl)amino)-4-((S)-2-methylpiperidin-1-yl)-1,4-dioxobutan-2-yl)-1-methyl-1H-imidazole-4-carboxamide], the IC50 came out at 10.9 µM.

Consider `Cc1cc(C(=O)N[C@@H](CC(=O)N2CCCC[C@@H]2C)C(=O)N[C@@H](C)c2ncc(-c3ccc(F)cc3F)[nH]2)no1` [CEN-94, N—((S)-1-(((S)-1-(5-(2,4-Difluorophenyl)-1H-imidazol-2-yl)ethyl)amino)-4-((S)-2-methylpiperidin-1-yl)-1,4-dioxobutan-2-yl)-5-methylisoxazole-3-carboxamide], for which the IC50 came to 5.5 µM.

On to `CC(C)c1noc(N[C@@H](CC(=O)N2CCCC[C@@H]2C)C(=O)N[C@@H](C)c2ncc(-c3ccc(F)cc3F)[nH]2)n1` [CEN-95, (S)—N—((S)-1-(5-(2,4-Difluorophenyl)-1H-imidazol-2-yl)ethyl)-2-((3-isopropyl-1,2,4-oxadiazol-5-yl)amino)-4-((S)-2-methylpiperidin-1-yl)-4-oxobutanamide], for which the IC50 was determined as 2.3 µM.

On to `C[C@H](NC(=O)[C@H](CC(=O)N1CCCC[C@@H]1C)NC(=O)C1CC(C)(C)C1)c1ncc(-c2ccc(F)cc2F)[nH]1` [CEN-96, N—((S)-1-(((S)-1-(5-(2,4-difluorophenyl)-1H-imidazol-2-yl)ethyl)amino)-4-((S)-2-methylpiperidin-1-yl)-1,4-dioxobutan-2-yl)-3,3-dimethylcyclobutane-1-carboxamide], for which the IC50 was determined as 5.7 µM.

With `CC(C)C1CC1C(=O)N[C@@H](CC(=O)N1CCCC[C@@H]1C)C(=O)N[C@@H](C)c1ncc(-c2ccc(F)cc2F)[nH]1` (stereo partly drawn) [CEN-97, N—((S)-1-(((S)-1-(5-(2,4-Difluorophenyl)-1H-imidazol-2-yl)ethyl)amino)-4-((S)-2-methylpiperidin-1-yl)-1,4-dioxobutan-2-yl)-2-isopropylcyclopropane-1-carboxamide], the IC50 turned out to be 4.8 µM.

In the case of `C[C@H](NC(=O)[C@H](CC(=O)N1CCCC[C@@H]1C)NC(=O)c1cncs1)c1ncc(-c2ccc(F)cc2F)[nH]1` [CEN-98, N—((S)-1-(((S)-1-(5-(2,4-Difluorophenyl)-1H-imidazol-2-yl)ethyl)amino)-4-((S)-2-methylpiperidin-1-yl)-1,4-dioxobutan-2-yl)thiazole-5-carboxamide], the IC50 was 7.1 µM.

As for `C[C@H](NC(=O)[C@H](CC(=O)N1CCCC[C@@H]1C)NC(=O)CCC(C)(C)C)c1ncc(-c2ccc(F)cc2F)[nH]1` [CEN-99, N—((S)-1-(((S)-1-(5-(2,4-Difluorophenyl)-1H-imidazol-2-yl)ethyl)amino)-4-((S)-2-methylpiperidin-1-yl)-1,4-dioxobutan-2-yl)-4,4-dimethylpentanamide], the IC50 is 8.5 µM.

Turning to `CC[C@H]1CCCCN1C(=O)C[C@H](NC(=O)CCC(C)C)C(=O)N[C@@H](C)c1ncc(-c2ccc(F)cc2F)[nH]1` [CEN-100, N—((S)-1-(((S)-1-(5-(2,4-Difluorophenyl)-1H-imidazol-2-yl)ethyl)amino)-4-((S)-2-ethylpiperidin-1-yl)-1,4-dioxobutan-2-yl)-4-methylpentanamide], the IC50 is 4.4 µM.

As to `C[C@H](NC(=O)N(CC(=O)N1CCCC[C@@H]1C)NC(=O)CCC(C)(C)C)c1ncc(-c2ccc(F)cc2F)[nH]1` [CEN-101, N—((S)-1-(5-(2,4-Difluorophenyl)-1H-imidazol-2-yl)ethyl)-2-(4,4-dimethylpentanoyl)-1-(2-((S)-2-methylpiperidin-1-yl)-2-oxoethyl)hydrazine-1-carboxamide], the IC50 worked out at 7.6 µM.

Consider `C[C@H](NC(=O)[C@H](CC(=O)N1CCCC[C@@H]1C)NC(=O)Cc1ccccc1)c1ncc(-c2ccc(F)cc2F)[nH]1` [CEN-102, (S)—N—((S)-1-(5-(2,4-Difluorophenyl)-1H-imidazol-2-yl)ethyl)-4-((S)-2-methylpiperidin-1-yl)-4-oxo-2-(2-phenylacetamido)butanamide], for which the IC50 came out at 10.2 µM.

Consider `C[C@H](NC(=O)[C@H](CC(=O)N1CCCC[C@@H]1C)NCC(=O)c1ccccc1)c1ncc(-c2ccc(F)cc2F)[nH]1` [CEN-103, (S)—N—((S)-1-(5-(2,4-Difluorophenyl)-1H-imidazol-2-yl)ethyl)-4-((S)-2-methylpiperidin-1-yl)-4-oxo-2-((2-oxo-2-phenylethyl)amino)butanamide], for which the IC50 was found to be 15.2 µM.

`CC(C)CS(=O)(=O)N[C@@H](CC(=O)N1CCCC[C@@H]1C)C(=O)N[C@@H](C)c1ncc(-c2ccc(F)cc2F)[nH]1` [CEN-104, (S)—N—((S)-1-(5-(2,4-Difluorophenyl)-1H-imidazol-2-yl)ethyl)-4-((S)-2-methylpiperidin-1-yl)-2-((2-methylpropyl)sulfonamido)-4-oxobutanamide]: the IC50 is 4.9 µM.

Take `Cc1ncc(C(=O)N[C@@H](CC(=O)N2CCCC[C@@H]2C)C(=O)N[C@@H](C)c2ncc(-c3ccc(F)cc3F)[nH]2)s1` [CEN-105, N—((S)-1-(((S)-1-(5-(2,4-Difluorophenyl)-1H-imidazol-2-yl)ethyl)amino)-4-((S)-2-methylpiperidin-1-yl)-1,4-dioxobutan-2-yl)-2-methylthiazole-5-carboxamide]: the IC50 came out at 3.9 µM.

Regarding `C[C@H](NC(=O)[C@H](CC(=O)N1CCCC[C@@H]1C)NC(=O)CC1CCOCC1)c1ncc(-c2ccc(F)cc2F)[nH]1` [CEN-106, (S)—N—((S)-1-(5-(2,4-Difluorophenyl)-1H-imidazol-2-yl)ethyl)-4-((S)-2-methylpiperidin-1-yl)-4-oxo-2-(2-(tetrahydro-2H-pyran-4-yl)acetamido)butanamide], the IC50 was 12.8 µM.

For the compound `CC(C)CCC(=O)N[C@@H](CC(=O)N1CCCCC1C(C)C)C(=O)N[C@@H](C)c1ncc(-c2ccc(F)cc2F)[nH]1` (stereo partly drawn) [CEN-107, N-((2S)-1-(((S)-1-(5-(2,4-Difluorophenyl)-1H-imidazol-2-yl)ethyl)amino)-4-(2-isopropylpiperidin-1-yl)-1,4-dioxobutan-2-yl)-4-methylpentanamide], the IC50 came out at 2.8 µM.

For the compound `C[C@H](NC(=O)[C@H](CC(=O)N1CCCC[C@@H]1C)NS(=O)(=O)CCC1CC1)c1ncc(-c2ccc(F)cc2F)[nH]1` [CEN-108, (S)-2-((2-Cyclopropylethyl)sulfonamido)-N—((S)-1-(5-(2,4-difluorophenyl)-1H-imidazol-2-yl)ethyl)-4-((S)-2-methylpiperidin-1-yl)-4-oxobutanamide], the IC50 turned out to be 6.2 µM.
